Source: ChEMBL document CHEMBL3217526, “Bioguided discovery and pharmacophore modeling of the mycotoxic indole diterpene alkaloids penitrems as breast cancer proliferation, migration, and invasion inhibitors” (Medchemcomm, 2013)

Legend:
Caenorhabditis elegans [1] = experiment: Toxicity in L1 stage Caenorhabditis elegans N2 assessed as viability and reproduction at 50 uM; assay type: organism-based; conditions: in vivo
Caenorhabditis elegans [2] = experiment: Toxicity in L1 stage Caenorhabditis elegans N2 assessed as viability and reproduction at 10 uM; assay type: organism-based; conditions: in vivo
MDA-MB-231 [3] = experiment: Antiinvasive activity against human MDA-MB-231 cells assessed as inhibition of cell invasion at 15 uM after 24 hrs by BME Cell invasion assay kit; assay type: functional; conditions: MDA-MB-231, 24 h
MDA-MB-231 [4] = experiment: Antimigratory activity in human MDA-MB-231 cells after 24 hrs by wound healing assay; assay type: functional, cell-based; conditions: MDA-MB-231, 24 h
MDA-MB-231 [5] = experiment: Antiproliferative activity against human MDA-MB-231 cells after 72 hrs by MTT assay; assay type: functional, cell-based; conditions: MDA-MB-231, 72 h
MCF7 = experiment: Antiproliferative activity against human MCF7 cells after 72 hrs by MTT assay; assay type: functional, cell-based; conditions: MCF7, 72 h
Caenorhabditis elegans [6] = experiment: In vivo inhibition of BK channel in L1 stage Caenorhabditis elegans N2 assessed as increase in reversals at 1 uM; assay type: organism-based

C=C1Cc2ccc3[nH]c4c5c3c2[C@H]2[C@@H]1C[C@H]2C(C)(C)O[C@H]5[C@@H]1CC[C@@]2(O)C3=C[C@@H](O)[C@@H](C(=C)C)O[C@H]3CC[C@]2(C)[C@@]41C [PENITREM D]
Activity (Caenorhabditis elegans [1]): Non-toxic | Activity (Caenorhabditis elegans [2]): Non-toxic | inhibition at 15 µM (MDA-MB-231 [3]): 50% | IC50 (MDA-MB-231 [4]): 9.2 µM | IC50 (MDA-MB-231 [5]): 29.7 µM | IC50 (MCF7): 8.3 µM

CC(C)(O)[C@@H]1CC[C@]2(C)[C@H](CC[C@@]3(C)[C@H]2CC[C@H]2Cc4c([nH]c5ccccc45)[C@@]23C)O1 [PASPALINE]
Activity (Caenorhabditis elegans [1]): Non-toxic | Activity (Caenorhabditis elegans [2]): Non-toxic | IC50 (MDA-MB-231 [4]): 7.6 µM | IC50 (MDA-MB-231 [5]): 12.4 µM | IC50 (MCF7): 12.8 µM

C=C(C)[C@H]1O[C@H]2CC[C@@]3(C)[C@@](O)(CC[C@H]4[C@@H]5OC(C)(C)[C@H]6C[C@@H]7C(=C)Cc8c(Br)cc9[nH]c(c5c9c8[C@@]76O)[C@@]43C)[C@]23O[C@@H]3[C@H]1O
Activity (Caenorhabditis elegans [1]): Non-toxic | Activity (Caenorhabditis elegans [2]): Non-toxic | Activity (Caenorhabditis elegans [6]): Toxic | IC50 (MDA-MB-231 [4]): 9.6 µM | IC50 (MDA-MB-231 [5]): 8.5 µM | IC50 (MCF7): 16.7 µM

C=C1Cc2c(Br)cc3[nH]c4c5c3c2[C@H]2[C@@H]1C[C@@H]2C(C)(C)O[C@H]5[C@@H]1CC[C@@]2(O)[C@@]35O[C@@H]3[C@@H](O)[C@@H](C(=C)C)O[C@H]5CC[C@]2(C)[C@]41C
Activity (Caenorhabditis elegans [1]): Non-toxic | Activity (Caenorhabditis elegans [2]): Non-toxic | IC50 (MDA-MB-231 [4]): 30.3 µM | IC50 (MDA-MB-231 [5]): 18.8 µM | IC50 (MCF7): 19.3 µM
